Assays:
[1] = biological target: CYP2D6 (Homo sapiens, UniProt P10635); test: CYP2D6 inhibition; assay type: in vitro ADME; conditions: read-out: CYP2D6inh [IC50]
[2] = biological target: Human H3 (Homo sapiens, UniProt Q9Y5N1); test: Functional assay II, human H3 GTPγS; assay type: biochemical; conditions: read-out: hH3-GTPgS) [Ki]
[3] = biological target: CYP2C9 (Homo sapiens, UniProt P11712); test: CYP2C9 inhibition; assay type: in vitro ADME; conditions: read-out: CYP2C9inh [IC50]
[4] = tested on: rat; test: Open cage schedule-fed rat model, food intake; assay type: in vivo; conditions: for Feed. Inhib. rat [Response 3 h]: response at 3 h
[5] = biological target: CYP3A4 (Homo sapiens, UniProt P08684); test: CYP3A4 inhibition; assay type: in vitro ADME; conditions: read-out: CYP3A4inh [IC50]
CYP3A4, sequence (P08684 whole entry): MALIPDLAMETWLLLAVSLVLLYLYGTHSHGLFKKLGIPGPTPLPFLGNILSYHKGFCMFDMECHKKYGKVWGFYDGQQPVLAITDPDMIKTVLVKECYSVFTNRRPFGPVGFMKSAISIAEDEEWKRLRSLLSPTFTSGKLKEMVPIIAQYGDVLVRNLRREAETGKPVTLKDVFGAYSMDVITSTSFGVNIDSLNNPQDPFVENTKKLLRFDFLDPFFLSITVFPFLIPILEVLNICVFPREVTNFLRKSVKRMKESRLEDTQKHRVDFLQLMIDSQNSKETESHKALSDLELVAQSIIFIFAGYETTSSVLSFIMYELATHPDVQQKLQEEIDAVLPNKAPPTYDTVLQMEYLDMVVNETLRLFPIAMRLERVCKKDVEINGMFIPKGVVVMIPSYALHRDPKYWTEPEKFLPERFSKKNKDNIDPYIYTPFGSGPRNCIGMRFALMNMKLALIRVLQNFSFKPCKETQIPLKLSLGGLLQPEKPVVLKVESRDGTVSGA

[6] = biological target: T1, CYP1A (Homo sapiens, UniProt P05177); test: CYP1A inhibition
T1 sequence (P05177 2-516): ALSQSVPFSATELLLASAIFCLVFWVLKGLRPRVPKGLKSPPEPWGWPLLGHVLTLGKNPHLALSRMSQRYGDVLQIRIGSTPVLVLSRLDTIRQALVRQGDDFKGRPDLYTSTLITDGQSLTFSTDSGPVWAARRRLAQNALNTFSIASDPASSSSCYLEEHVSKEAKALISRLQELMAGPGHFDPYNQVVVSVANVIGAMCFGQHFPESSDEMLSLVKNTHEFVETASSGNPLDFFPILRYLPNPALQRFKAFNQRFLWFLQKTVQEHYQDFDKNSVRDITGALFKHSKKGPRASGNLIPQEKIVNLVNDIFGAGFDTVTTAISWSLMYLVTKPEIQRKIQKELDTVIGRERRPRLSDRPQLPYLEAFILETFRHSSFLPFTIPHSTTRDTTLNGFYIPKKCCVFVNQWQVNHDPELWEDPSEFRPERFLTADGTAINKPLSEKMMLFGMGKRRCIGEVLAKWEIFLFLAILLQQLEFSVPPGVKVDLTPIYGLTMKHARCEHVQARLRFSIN

[7] = biological target: CYP2C19 (Homo sapiens, UniProt P33261); test: CYP2C19 inhibition; assay type: in vitro ADME; conditions: read-out: CYP2C19inh [IC50]
CYP2C19, sequence (P33261 whole entry): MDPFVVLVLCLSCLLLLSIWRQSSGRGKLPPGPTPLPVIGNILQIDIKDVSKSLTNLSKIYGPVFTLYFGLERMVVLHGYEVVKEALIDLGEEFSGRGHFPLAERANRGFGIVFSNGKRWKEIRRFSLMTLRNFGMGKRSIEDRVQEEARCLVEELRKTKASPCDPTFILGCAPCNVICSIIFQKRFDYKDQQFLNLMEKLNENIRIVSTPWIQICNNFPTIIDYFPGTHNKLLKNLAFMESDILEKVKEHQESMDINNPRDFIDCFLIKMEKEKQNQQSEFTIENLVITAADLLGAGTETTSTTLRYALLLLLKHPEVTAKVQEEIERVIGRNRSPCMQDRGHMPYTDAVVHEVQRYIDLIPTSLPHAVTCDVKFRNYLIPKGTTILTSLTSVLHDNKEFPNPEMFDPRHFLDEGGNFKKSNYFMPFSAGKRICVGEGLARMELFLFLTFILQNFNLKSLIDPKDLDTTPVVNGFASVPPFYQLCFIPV

[8] = biological target: hERG (Homo sapiens, UniProt Q12809); test: Herg-binding (3H-Astemizol); conditions: probe 3H-astemizole
hERG, sequence (Q12809 whole entry): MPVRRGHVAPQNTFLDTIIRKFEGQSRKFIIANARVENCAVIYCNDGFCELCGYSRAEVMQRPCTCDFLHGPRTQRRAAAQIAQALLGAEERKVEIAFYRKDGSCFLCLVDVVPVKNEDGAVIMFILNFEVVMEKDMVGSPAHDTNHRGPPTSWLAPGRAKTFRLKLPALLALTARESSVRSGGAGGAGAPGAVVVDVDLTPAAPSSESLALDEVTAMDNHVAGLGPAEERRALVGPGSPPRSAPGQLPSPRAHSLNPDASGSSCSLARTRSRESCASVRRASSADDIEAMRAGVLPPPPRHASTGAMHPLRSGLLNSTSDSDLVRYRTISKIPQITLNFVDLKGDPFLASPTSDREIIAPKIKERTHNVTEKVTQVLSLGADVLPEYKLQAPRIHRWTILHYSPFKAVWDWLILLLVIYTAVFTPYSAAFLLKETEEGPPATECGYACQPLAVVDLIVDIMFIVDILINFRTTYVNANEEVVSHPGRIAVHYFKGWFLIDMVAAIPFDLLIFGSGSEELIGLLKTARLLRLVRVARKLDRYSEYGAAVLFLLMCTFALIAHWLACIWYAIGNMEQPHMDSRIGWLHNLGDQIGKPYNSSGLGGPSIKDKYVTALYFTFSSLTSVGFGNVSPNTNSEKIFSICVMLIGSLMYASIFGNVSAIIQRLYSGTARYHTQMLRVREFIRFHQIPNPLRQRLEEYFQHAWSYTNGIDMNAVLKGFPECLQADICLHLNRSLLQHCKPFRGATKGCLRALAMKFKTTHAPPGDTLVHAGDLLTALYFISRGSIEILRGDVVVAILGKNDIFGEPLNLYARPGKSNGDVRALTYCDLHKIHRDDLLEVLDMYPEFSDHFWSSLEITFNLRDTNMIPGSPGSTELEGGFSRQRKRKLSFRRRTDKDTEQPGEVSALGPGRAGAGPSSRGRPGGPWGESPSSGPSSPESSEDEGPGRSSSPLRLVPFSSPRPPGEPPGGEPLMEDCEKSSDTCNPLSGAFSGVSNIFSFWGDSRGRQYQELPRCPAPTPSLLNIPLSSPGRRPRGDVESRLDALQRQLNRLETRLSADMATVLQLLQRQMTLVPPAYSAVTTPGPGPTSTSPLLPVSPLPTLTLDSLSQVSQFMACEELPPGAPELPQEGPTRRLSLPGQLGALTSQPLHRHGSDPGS

CYP2C9, sequence (P11712 whole entry): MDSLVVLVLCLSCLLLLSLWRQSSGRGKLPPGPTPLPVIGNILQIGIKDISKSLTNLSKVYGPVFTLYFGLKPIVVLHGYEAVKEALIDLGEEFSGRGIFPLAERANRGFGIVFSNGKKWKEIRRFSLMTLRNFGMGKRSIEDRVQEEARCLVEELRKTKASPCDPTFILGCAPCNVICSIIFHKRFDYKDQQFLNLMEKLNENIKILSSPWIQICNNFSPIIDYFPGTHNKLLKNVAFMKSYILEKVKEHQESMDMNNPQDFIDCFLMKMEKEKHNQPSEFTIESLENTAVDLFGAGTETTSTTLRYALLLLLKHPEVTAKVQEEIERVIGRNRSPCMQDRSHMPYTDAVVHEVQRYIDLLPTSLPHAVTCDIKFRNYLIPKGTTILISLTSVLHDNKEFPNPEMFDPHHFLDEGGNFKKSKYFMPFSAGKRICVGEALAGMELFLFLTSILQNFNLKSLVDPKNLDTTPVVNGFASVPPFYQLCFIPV
CYP2D6, sequence (P10635 whole entry): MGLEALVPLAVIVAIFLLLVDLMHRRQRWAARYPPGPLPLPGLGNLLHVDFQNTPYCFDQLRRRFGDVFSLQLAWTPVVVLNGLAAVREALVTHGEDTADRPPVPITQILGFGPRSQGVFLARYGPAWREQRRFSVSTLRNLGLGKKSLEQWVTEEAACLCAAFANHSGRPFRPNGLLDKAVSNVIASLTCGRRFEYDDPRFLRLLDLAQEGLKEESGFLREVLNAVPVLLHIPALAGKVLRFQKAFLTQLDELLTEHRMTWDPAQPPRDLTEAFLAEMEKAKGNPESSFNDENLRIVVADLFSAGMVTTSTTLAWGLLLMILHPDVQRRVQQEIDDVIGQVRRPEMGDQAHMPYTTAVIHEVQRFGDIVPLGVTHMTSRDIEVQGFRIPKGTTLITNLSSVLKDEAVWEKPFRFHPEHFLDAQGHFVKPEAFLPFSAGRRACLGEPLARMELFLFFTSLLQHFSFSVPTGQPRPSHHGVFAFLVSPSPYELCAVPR
Human H3, sequence (Q9Y5N1 whole entry): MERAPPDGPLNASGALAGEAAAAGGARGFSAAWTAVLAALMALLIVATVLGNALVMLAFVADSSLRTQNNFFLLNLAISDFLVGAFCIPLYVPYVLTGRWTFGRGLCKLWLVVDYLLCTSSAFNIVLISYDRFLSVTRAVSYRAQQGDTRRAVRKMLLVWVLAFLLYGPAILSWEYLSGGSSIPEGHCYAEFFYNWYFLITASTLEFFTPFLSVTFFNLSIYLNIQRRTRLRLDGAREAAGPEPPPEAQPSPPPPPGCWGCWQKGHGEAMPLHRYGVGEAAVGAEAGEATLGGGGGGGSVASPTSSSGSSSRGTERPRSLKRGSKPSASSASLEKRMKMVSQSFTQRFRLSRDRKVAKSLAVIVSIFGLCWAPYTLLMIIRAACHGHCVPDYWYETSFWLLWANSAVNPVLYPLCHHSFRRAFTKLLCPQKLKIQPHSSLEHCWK

| Compound | IC50 [1] [µM] | Ki [2] [µM] | IC50 [3] [µM] | Open cage schedule-fed rat model, dose 15 mg/kg p.o., food intake at 3 h [4] | Feed. Inhib. rat [Response 3 h] [4] [%] | IC50 [5] [µM] | IC50 [6] [µM] | IC50 [7] [µM] | inhibition at 10 µM [8] [%] |
| --- | --- | --- | --- | --- | --- | --- | --- | --- | --- |
| Cc1cc(-c2ccc(CC3CCN(C4CCC4)CC3)nc2)ccn1.Cl.Cl [Example 29, 6-(1-Cyclobutylpiperidin-4-ylmethyl)-2′-methyl-[3,4′]bipyridinyl] | > 25 | 0.0084 | > 25 | 74.4 % of vehicle | 74.4 | > 25 | > 25 | > 25 | 7 |
| CC(C)N1CCC(c2ccc(-c3ccc(C(=O)N4CCCC4)cc3)cn2)CC1.Cl.Cl [Example 11, [4-(1′-Isopropyl-1′,2′,3′,4′,5′,6′-hexahydro-[2,4′]bipyridinyl-5-yl)phenyl]pyrrolidin-1-ylmethanone] | > 25 | 0.026 | > 25 | 85.9 % of vehicle | 85.9 | > 25 | > 25 | > 25 | 19 |
| CC(C)N1CCN(Cc2ccc(-c3ccc(C(=O)N(C)C)cc3)cn2)CC1.Cl.Cl [Example 42, 4-[6-(4-Isopropylpiperazin-1-ylmethyl)pyridin-3-yl]-N,N-dimethylbenzamide] | > 25 | 0.017 | > 25 | 87.8 % of vehicle | 87.8 | > 25 | > 25 | > 25 | 7 |

Source: patent US8344001B2, “Heterocyclic H3 antagonists” (High Point Pharmaceuticals, LLC, priority 2007, dated 2013)
